Assay results published in patent US20250136606A1, “MODULATORS OF TRPML, THEIR COMPOSITIONS AND METHODS OF USE” (Caraway Therapeutics, Inc., priority 2021, published 2025).

Key:
Assay type in all cases: cell-based
TRPML1 = TRPML1 (Homo sapiens, UniProt Q9GZU1); experiment: Fluorescent TRPML1 assay (Fluo4-AM calcium fluorescence in doxycycline-induced HEK-293 Trex cells)
Summary of the method: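 HEK-293 Trex cells stably expressing surface-directed mutant human TRPML1, induced with 0.5 µg/mL doxycycline overnight, were loaded with 1 µM Fluo4-AM and added to compound (6 nM–20 µM final, half-log steps, triplicate) in Ringer's with 10 mM calcium. Fluorescence ex 480/em 540; EC50 by non-linear regression versus plate controls.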

TRPML2 = target: T1, TRPML2 (Homo sapiens, UniProt Q8IZK6); experiment: Fluorescent TRPML2 assay (performed as for TRPML1, substituting the TRPML2 subtype)
T1 construct: expressed in transfected cells
T1 sequence (Q8IZK6 1-566): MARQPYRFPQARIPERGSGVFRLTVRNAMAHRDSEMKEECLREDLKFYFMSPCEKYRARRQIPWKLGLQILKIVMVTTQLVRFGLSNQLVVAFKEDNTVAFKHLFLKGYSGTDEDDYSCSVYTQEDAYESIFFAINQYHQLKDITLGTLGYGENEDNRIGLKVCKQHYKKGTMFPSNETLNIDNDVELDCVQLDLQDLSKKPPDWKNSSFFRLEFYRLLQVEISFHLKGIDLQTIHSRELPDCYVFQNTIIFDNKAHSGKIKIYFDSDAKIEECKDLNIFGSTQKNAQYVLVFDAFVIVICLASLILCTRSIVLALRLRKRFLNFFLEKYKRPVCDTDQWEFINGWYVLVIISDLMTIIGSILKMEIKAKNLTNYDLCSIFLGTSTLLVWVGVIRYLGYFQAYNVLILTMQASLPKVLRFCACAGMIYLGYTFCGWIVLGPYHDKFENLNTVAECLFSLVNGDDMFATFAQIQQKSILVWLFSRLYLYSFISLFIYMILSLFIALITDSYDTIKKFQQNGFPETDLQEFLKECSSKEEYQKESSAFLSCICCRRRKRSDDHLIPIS
Summary of the method: (§1)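 HEK-293 Trex cells with doxycycline-induced (0.5 ug/mL) surface-directed human TRPML subtype, loaded with 1 μM Fluo4-AM, resuspended in Ringer's with 10 mM calcium. Compounds at 20 μM to 6 nM final in half-log steps, triplicate; fluorescence ex 480/em 540; EC50 by non-linear regression versus plate controls.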

TRPML3 = target: T2, TRPML3 (Homo sapiens, UniProt Q8TDD5); experiment: Fluorescent TRPML3 assay (performed as for TRPML1, substituting the TRPML3 subtype)
T2 construct: expressed in transfected cells
T2 sequence (Q8TDD5 1-553): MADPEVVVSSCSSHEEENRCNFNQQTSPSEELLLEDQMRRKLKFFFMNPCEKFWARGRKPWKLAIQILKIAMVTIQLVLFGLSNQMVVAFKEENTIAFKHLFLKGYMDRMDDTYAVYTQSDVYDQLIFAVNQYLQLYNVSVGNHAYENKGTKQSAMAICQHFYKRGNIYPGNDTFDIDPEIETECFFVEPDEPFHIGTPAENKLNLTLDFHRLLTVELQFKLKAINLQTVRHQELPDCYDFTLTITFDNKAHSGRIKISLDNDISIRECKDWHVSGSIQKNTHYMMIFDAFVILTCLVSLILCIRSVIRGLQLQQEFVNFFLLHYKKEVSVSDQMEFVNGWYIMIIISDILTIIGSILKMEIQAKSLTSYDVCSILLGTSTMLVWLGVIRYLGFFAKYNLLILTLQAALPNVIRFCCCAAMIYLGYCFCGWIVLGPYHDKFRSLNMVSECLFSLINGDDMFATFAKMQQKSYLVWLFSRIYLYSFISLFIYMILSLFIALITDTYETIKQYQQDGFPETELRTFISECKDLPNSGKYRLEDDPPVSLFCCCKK
Summary of the method: as §1

Chain of TRPML1 (Q9GZU1 whole entry L15A/L16A/L577A/L578A, form open): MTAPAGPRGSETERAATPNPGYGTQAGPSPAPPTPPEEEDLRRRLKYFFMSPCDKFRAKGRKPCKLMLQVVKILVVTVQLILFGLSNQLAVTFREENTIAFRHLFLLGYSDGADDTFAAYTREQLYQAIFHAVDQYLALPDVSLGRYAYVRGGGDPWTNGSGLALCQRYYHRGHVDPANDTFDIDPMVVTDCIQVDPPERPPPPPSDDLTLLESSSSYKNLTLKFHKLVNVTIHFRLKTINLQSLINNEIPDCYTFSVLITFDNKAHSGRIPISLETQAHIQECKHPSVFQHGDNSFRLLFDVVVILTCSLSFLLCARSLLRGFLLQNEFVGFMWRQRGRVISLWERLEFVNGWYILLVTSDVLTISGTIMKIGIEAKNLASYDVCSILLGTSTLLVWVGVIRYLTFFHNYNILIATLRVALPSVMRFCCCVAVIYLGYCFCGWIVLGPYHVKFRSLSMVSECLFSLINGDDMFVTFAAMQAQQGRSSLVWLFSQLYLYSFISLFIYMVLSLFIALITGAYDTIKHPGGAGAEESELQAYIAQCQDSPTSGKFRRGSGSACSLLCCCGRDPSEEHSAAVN

SMILES	EC50 (TRPML1) [nM]	EC50 (TRPML2) [nM]	EC50 (TRPML3) [nM]
C[C@@H]1CN(c2ncnc3c2c(C2CC2)cn3-c2cccc(F)c2)[C@@H](C)CN1C(=O)OC(C)(C)C [Compound 657, tert-butyl (2R,5S)-4-(5-cyclopropyl-7-(3-fluorophenyl)-7H-pyrrolo[2,3-d]pyrimidin-4-yl)-2,5-dimethylpiperazine-1-carboxylate]	< 100	< 100	< 100
C[C@@H]1CN(c2ncnc3c2c(C(F)(F)F)cn3-c2cc(F)ccn2)[C@@H](C)CN1C(=O)OC1(C)CC1 [Compound 659, 1-methylcyclopropyl (2R,5S)-4-(7-(4-fluoropyridin-2-yl)-5-(trifluoromethyl)-7H-pyrrolo[2,3-d]pyrimidin-4-yl)-2,5-dimethylpiperazine-1-carboxylate]	< 100	> 2000	100 to 500
Cc1cn(-c2cccc(F)c2)c2ncnc(N3C[C@@H](C)N(C(=O)OC(C)(C)C)C[C@@H]3C)c12 [Compound 666, tert-butyl (2R,5S)-4-(7-(3-fluorophenyl)-5-methyl-7H-pyrrolo[2,3-d]pyrimidin-4-yl)-2,5-dimethylpiperazine-1-carboxylate]	< 100	100 to 500	100 to 500
Cc1cn(-c2cccc(C(F)(F)F)c2)c2ncnc(N3C[C@@H](C)N(C(=O)OC(C)(C)C)C[C@@H]3C)c12 [Compound 667, tert-butyl (2R,5S)-2,5-dimethyl-4-(5-methyl-7-(3-(trifluoromethyl)phenyl)-7H-pyrrolo[2,3-d]pyrimidin-4-yl)piperazine-1-carboxylate]	< 100	100 to 500	< 100
Cc1cn(-c2cccc(Cl)c2)c2ncnc(N3C[C@@H](C)N(C(=O)OC(C)(C)C)C[C@@H]3C)c12 [Compound 671, tert-butyl (2R,5S)-4-(7-(3-chlorophenyl)-5-methyl-7H-pyrrolo[2,3-d]pyrimidin-4-yl)-2,5-dimethylpiperazine-1-carboxylate]	< 100	100 to 500	< 100
Cc1cn(-c2cncc(F)c2)c2ncnc(N3C[C@@H](C)N(C(=O)OC(C)(C)C)C[C@@H]3C)c12 [Compound 672, tert-butyl (2R,5S)-4-(7-(5-fluoropyridin-3-yl)-5-methyl-7H-pyrrolo[2,3-d]pyrimidin-4-yl)-2,5-dimethylpiperazine-1-carboxylate]	100 to 500	500 to 2000	100 to 500
Cc1cn(-c2cncc(C#N)c2)c2ncnc(N3C[C@@H](C)N(C(=O)OC(C)(C)C)C[C@@H]3C)c12 [Compound 675, tert-butyl (2R,5S)-4-(7-(5-cyanopyridin-3-yl)-5-methyl-7H-pyrrolo[2,3-d]pyrimidin-4-yl)-2,5-dimethylpiperazine-1-carboxylate]	< 100	100 to 500	100 to 500

Second part, the molecule after the results:

EC50 (TRPML1) [nM]	EC50 (TRPML2) [nM]	EC50 (TRPML3) [nM]	SMILES
< 100	500 to 2000	100 to 500	C[C@@H]1CN(c2ncnc3c2c(C2CC2)cn3-c2cccc(F)c2)[C@@H](C)CN1C(=O)OC1(C)CC1 [Compound 658, 1-methylcyclopropyl (2R,5S)-4-(5-cyclopropyl-7-(3-fluorophenyl)-7H-pyrrolo[2,3-d]pyrimidin-4-yl)-2,5-dimethylpiperazine-1-carboxylate]
100 to 500	500 to 2000	100 to 500	C[C@H]1CN(C(=O)OC2(C)CC2)CCN1c1ncnc2c1c(C(F)(F)F)cn2-c1cccc(Cl)c1 [Compound 660, 1-methylcyclopropyl (S)-4-(7-(3-chlorophenyl)-5-(trifluoromethyl)-7H-pyrrolo[2,3-d]pyrimidin-4-yl)-3-methylpiperazine-1-carboxylate]
100 to 500	500 to 2000	100 to 500	C[C@@H]1CN(c2ncnc3c2c(C(F)(F)F)cn3-c2cc(F)cc(F)c2)[C@@H](C)CN1C(=O)OC1(C)CC1 [Compound 661, 1-methylcyclopropyl (2R,5S)-4-(7-(3,5-difluorophenyl)-5-(trifluoromethyl)-7H-pyrrolo[2,3-d]pyrimidin-4-yl)-2,5-dimethylpiperazine-1-carboxylate]
< 100	100 to 500	< 100	C[C@@H]1CN(c2ncnc3c2c(C(F)(F)F)cn3-c2cncc(C#N)c2)[C@@H](C)CN1C(=O)OC(C)(C)C [Compound 662, tert-butyl (2R,5S)-4-(7-(5-cyanopyridin-3-yl)-5-(trifluoromethyl)-7H-pyrrolo[2,3-d]pyrimidin-4-yl)-2,5-dimethylpiperazine-1-carboxylate]
100 to 500	> 2000	100 to 500	C[C@@H]1CN(c2ncnc3c2c(C(F)(F)F)cn3-c2ccccn2)[C@@H](C)CN1C(=O)OC(C)(C)C [Compound 663, tert-butyl (2R,5S)-2,5-dimethyl-4-(7-(pyridin-2-yl)-5-(trifluoromethyl)-7H-pyrrolo[2,3-d]pyrimidin-4-yl)piperazine-1-carboxylate]
< 100	500 to 2000	< 100	COc1ccnc(-n2cc(C(F)(F)F)c3c(N4C[C@@H](C)N(C(=O)OC(C)(C)C)C[C@@H]4C)ncnc32)c1 [Compound 664, tert-butyl (2R,5S)-4-(7-(4-methoxypyridin-2-yl)-5-(trifluoromethyl)-7H-pyrrolo[2,3-d]pyrimidin-4-yl)-2,5-dimethylpiperazine-1-carboxylate]
< 100	500 to 2000	< 100	Cc1ccnc(-n2cc(C(F)(F)F)c3c(N4C[C@@H](C)N(C(=O)OC(C)(C)C)C[C@@H]4C)ncnc32)c1 [Compound 665, tert-butyl (2R,5S)-2,5-dimethyl-4-(7-(4-methylpyridin-2-yl)-5-(trifluoromethyl)-7H-pyrrolo[2,3-d]pyrimidin-4-yl)piperazine-1-carboxylate]
100 to 500	500 to 2000	100 to 500	Cc1cn(-c2ccccc2)c2ncnc(N3C[C@@H](C)N(C(=O)OC(C)(C)C)C[C@@H]3C)c12 [Compound 668, tert-butyl (2R,5S)-2,5-dimethyl-4-(5-methyl-7-phenyl-7H-pyrrolo[2,3-d]pyrimidin-4-yl)piperazine-1-carboxylate]
< 100	500 to 2000	< 100	Cc1cn(-c2cccc(C#N)c2)c2ncnc(N3C[C@@H](C)N(C(=O)OC(C)(C)C)C[C@@H]3C)c12 [Compound 669, tert-butyl (2R,5S)-4-(7-(3-cyanophenyl)-5-methyl-7H-pyrrolo[2,3-d]pyrimidin-4-yl)-2,5-dimethylpiperazine-1-carboxylate]
100 to 500	500 to 2000	< 100	Cc1cn(-c2cc(F)cc(F)c2)c2ncnc(N3C[C@@H](C)N(C(=O)OC(C)(C)C)C[C@@H]3C)c12 [Compound 670, tert-butyl (2R,5S)-4-(7-(3,5-difluorophenyl)-5-methyl-7H-pyrrolo[2,3-d]pyrimidin-4-yl)-2,5-dimethylpiperazine-1-carboxylate]
100 to 500	> 2000	100 to 500	Cc1cn(-c2ccccn2)c2ncnc(N3C[C@@H](C)N(C(=O)OC(C)(C)C)C[C@@H]3C)c12 [Compound 673, tert-butyl (2R,5S)-2,5-dimethyl-4-(5-methyl-7-(pyridin-2-yl)-7H-pyrrolo[2,3-d]pyrimidin-4-yl)piperazine-1-carboxylate]
